Counter-ions that a name gives are not always drawn.
How the values were obtained:
[1] = target: T1, IKKε (Homo sapiens, UniProt Q14164); experiment: IKKε biochemical assay; conditions: 10 point 1:4 dose response, 30 uM top concentration, 90 min at 25° C., LabChip EZ Reader II; read-out: IKKε_IC50
T1 sequence (Q14164 1-716): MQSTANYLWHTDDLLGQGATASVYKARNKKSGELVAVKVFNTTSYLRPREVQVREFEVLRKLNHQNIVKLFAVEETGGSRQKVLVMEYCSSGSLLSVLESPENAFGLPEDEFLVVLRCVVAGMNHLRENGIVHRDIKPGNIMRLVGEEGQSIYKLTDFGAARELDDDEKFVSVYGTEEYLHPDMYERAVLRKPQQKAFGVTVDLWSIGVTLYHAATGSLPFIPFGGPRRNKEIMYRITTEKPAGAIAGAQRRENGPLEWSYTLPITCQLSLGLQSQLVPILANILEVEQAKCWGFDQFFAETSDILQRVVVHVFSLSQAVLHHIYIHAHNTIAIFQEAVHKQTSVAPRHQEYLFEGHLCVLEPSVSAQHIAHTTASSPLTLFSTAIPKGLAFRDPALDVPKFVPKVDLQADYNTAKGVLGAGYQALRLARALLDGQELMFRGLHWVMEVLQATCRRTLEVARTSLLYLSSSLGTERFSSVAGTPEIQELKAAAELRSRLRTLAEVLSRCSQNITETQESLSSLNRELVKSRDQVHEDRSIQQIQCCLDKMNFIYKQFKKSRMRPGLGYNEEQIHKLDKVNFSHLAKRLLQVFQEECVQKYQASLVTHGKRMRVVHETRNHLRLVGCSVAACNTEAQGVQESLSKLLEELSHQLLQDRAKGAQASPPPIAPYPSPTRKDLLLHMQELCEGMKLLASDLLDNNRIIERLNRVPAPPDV
Method: (§1) Test compounds were transferred into Labcyte polypropylene 384 well plates (P055-25) and diluted to 3 mM using DMSO. […] 100 uM of a reference compound (1 uM final high concentration). Backfilling was performed if necessary so that all wells contain 1% DMSO final:
(§2) add 75 nl DMSO/well into columns 1, 2 and 24 using Labcyte Echo. add 75 nl 1.0 mM staurosporine/well into column 23 using Labcyte Echo (10 uM final) add 4.5 ul enzyme/well using multidrop dispenser add 3 ul substrate/well using multidrop dispenser incubate at 25° C. for 90 min. add 7.5 ul 2× stop buffer read on labchip ez reader II using IKKε.
(§3) Raw data files were opened in the Caliper LabChip Reviewer program (Version 3.0.265.0 SP2) and peak assignments were adjusted to reflect “substrate first” with the software's post-run analysis options. A spline-fit baseline was applied using the software's analysis algorithm.

[2] = target: T2, TBK1 (Homo sapiens, UniProt Q9UHD2); experiment: TBK biochemical assay; conditions: 10 point 1:4 dose response, 30 uM top concentration, 90 min at 25° C., LabChip EZ Reader II; read-out: TBK1_IC50
T2 sequence (Q9UHD2 1-729): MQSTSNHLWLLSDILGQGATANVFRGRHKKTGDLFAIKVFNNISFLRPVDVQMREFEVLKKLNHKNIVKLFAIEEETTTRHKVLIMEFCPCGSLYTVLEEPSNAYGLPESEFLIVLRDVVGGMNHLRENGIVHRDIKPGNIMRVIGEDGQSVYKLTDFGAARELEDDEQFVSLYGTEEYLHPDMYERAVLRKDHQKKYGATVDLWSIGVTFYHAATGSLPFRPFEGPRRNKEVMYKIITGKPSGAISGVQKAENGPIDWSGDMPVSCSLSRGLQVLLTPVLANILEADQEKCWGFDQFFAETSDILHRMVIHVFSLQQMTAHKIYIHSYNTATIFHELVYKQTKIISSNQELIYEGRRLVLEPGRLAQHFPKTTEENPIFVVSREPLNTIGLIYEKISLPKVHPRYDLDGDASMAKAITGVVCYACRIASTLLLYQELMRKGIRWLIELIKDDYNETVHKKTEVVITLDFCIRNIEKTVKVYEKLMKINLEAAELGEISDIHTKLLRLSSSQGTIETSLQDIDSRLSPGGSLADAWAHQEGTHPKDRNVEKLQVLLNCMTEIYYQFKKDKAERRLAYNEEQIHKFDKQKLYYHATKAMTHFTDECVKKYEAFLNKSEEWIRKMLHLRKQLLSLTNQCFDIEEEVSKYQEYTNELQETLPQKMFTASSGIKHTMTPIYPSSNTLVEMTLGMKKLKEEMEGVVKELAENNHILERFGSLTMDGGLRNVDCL
Method: as §1
as §2, with “C. in Heidolph incubator” for “C.”, “buffer using multidrop dispenser” for “buffer”, “TBK1.job” for “IKKε.”
as §3

IC50 [1] [nM] | IC50 [2] [nM] | Compound
< 100 | < 100 | COc1nc(Nc2nccc(-c3ccc(OC4CCOCC4)c(C#N)c3)n2)ccc1N(C)CC(=O)N(C)C [Example 35, 2-[[6-([4-[3-cyano-4-(oxan-4-yloxy)phenyl]pyrimidin-2-yl]amino)-2-methoxypyridin-3-yl](methyl)amino]-N,N-dimethylacetamide hydrochloride]
< 100 | < 100 | COc1nc(Nc2nccc(-c3ccc(OC4CCOCC4)c(C#N)c3)n2)ccc1N1C[C@@H](C)O[C@@H](C)C1 [Example 37, 5-[2-([5-[cis-2,6-dimethylmorpholin-4-yl]-6-methoxypyridin-2-yl]amino)pyrimidin-4-yl]-2-(oxan-4-yloxy)benzonitrile]
< 100 | < 100 | COc1nc(Nc2nccc(-c3ccc(OC4CCOCC4)c(C#N)c3)n2)ccc1N1C[C@@H](C)N(C2COC2)[C@@H](C)C1 [Example 38, 5-[2-([5-[cis-3,5-dimethyl-4-(oxetan-3-yl)piperazin-1-yl]-6-methoxypyridin-2-yl]amino)pyrimidin-4-yl]-2-(oxan-4-yloxy)benzonitrile]
< 100 | < 100 | COc1nc(Nc2nccc(-c3ccc(OC4CCOCC4)c(C#N)c3)n2)ccc1C1CCN(C)C1 (stereo not shown) [Example 42, 5-(2-[[6-methoxy-5-(1-methylpyrrolidin-3-yl)pyridin-2-yl]amino]pyrimidin-4-yl)-2-(oxan-4-yloxy)benzonitrile]
> 5000 | 1000 to 5000 | COc1nc(Nc2nccc(-c3cc(C#N)c(OC4CCOCC4)cn3)n2)ccc1N1CCN(C)CC1 [Example 44, 2-(2-[[6-methoxy-5-(4-methylpiperazin-1-yl)pyridin-2-yl]amino]pyrimidin-4-yl)-5-(oxan-4-yloxy)pyridine-4-carbonitrile hydrochloride]
< 100 | < 100 | COc1nc(Nc2nccc(-c3ccc(OC4CCOCC4)c(C#N)n3)n2)ccc1C1CCN(C)CC1 [Example 46, 6-(2-[[6-methoxy-5-(1-methylpiperidin-4-yl)pyridin-2-yl]amino]pyrimidin-4-yl)-3-(oxan-4-yloxy)pyridine-2-carbonitrile]
> 5000 | > 5000 | COc1cc(Nc2nccc(-c3cc(C#N)c(OC4CCOCC4)cn3)n2)ncc1C(=O)N(C)C [Example 51, 6-([4-[4-cyano-5-(oxan-4-yloxy)pyridin-2-yl]pyrimidin-2-yl]amino)-4-methoxy-N,N-dimethylpyridine-3-carboxamide]
1000 to 5000 | 1000 to 5000 | COc1cc(Nc2nccc(-c3cc(C#N)c(OC4CCOCC4)cn3)n2)cnc1C(=O)N(C)C [Example 52, 5-([4-[4-cyano-5-(oxan-4-yloxy)pyridin-2-yl]pyrimidin-2-yl]amino)-3-methoxy-N,N-dimethylpyridine-2-carboxamide]

The next lines start with the compound.

Compound | IC50 [1] [nM] | IC50 [2] [nM]
COc1nc(Nc2nccc(-c3ccc(OC4CCOCC4)c(C#N)c3)n2)ccc1N1CCN(C)CC1 [Example 33, 5-(2-(6-methoxy-5-(4-methylpiperazin-1-yl)pyridin-2-ylamino)pyrimidin-4-yl)-2-(tetrahydro-2H-pyran-4-yloxy)benzonitrile] | < 100 | < 100
COc1nc(Nc2nccc(-c3ccc(OC4CCOCC4)c(C#N)c3)n2)ccc1N(C)CCN(C)C [Example 34, 5-[2-[(5-[[2-(dimethylamino)ethyl](methyl)amino]-6-methoxypyridin-2-yl)amino]pyrimidin-4-yl]-2-(oxan-4-yloxy)benzonitrile hydrochloride] | < 100 | < 100
COc1nc(Nc2nccc(-c3ccc(OC4CCOCC4)c(C#N)c3)n2)ccc1N1C[C@@H](C)N(C)[C@@H](C)C1 [Example 36, 5-[2-([6-methoxy-5-[cis-3,4,5-trimethylpiperazin-1-yl]pyridin-2-yl]amino)pyrimidin-4-yl]-2-(oxan-4-yloxy)benzonitrile] | < 100 | < 100
COc1nc(Nc2nccc(-c3ccc(OC4CCOCC4)c(C#N)c3)n2)ccc1C1CCN(C)CC1 [Example 40, 5-(2-[[6-methoxy-5-(1-methylpiperidin-4-yl)pyridin-2-yl]amino]pyrimidin-4-yl)-2-(oxan-4-yloxy)benzonitrile] | < 100 | < 100
COc1nc(Nc2nccc(-c3ccc(OC4CCOCC4)c(C#N)c3)n2)ccc1CNC1CCN(C)CC1 [Example 41, 5-[2-[(6-methoxy-5-[[(1-methylpiperidin-4-yl)amino]methyl]pyridin-2-yl)amino]pyrimidin-4-yl]-2-(oxan-4-yloxy)benzonitrile hydrochloride] | < 100 | < 100
COc1nc(Nc2nccc(-c3ccc(OC4CCOCC4)c(C#N)c3)n2)ccc1C1CCN(C)CC1F (stereo not shown) [Example 43, 5-(2-[[5-(3-fluoro-1-methylpiperidin-4-yl)-6-methoxypyridin-2-yl]amino]pyrimidin-4-yl)-2-(oxan-4-yloxy)benzonitrile] | < 100 | < 100
COc1nc(Nc2nccc(-c3cc(C#N)c(OC4CCOCC4)cn3)n2)ccc1C1CCN(C)CC1 [Example 45, 2-(2-[[6-methoxy-5-(1-methylpiperidin-4-yl)pyridin-2-yl]amino]pyrimidin-4-yl)-5-(oxan-4-yloxy)pyridine-4-carbonitrile] | 1000 to 5000 | > 5000
COc1cc(C(=O)N(C)C)ncc1Nc1nccc(-c2ccc(OC3CCOCC3)c(C#N)c2)n1 [Example 47, 5-([4-[3-cyano-4-(oxan-4-yloxy)phenyl]pyrimidin-2-yl]amino)-4-methoxy-N,N-dimethylpyridine-2-carboxamide] | 100 to 1000 | < 100
COc1nc(C(=O)N(C)C)ccc1Nc1nccc(-c2ccc(OC3CCOCC3)c(C#N)c2)n1 [Example 48, 5-([4-[3-cyano-4-(oxan-4-yloxy)phenyl]pyrimidin-2-yl]amino)-6-methoxy-N,N-dimethylpyridine-2-carboxamide] | < 100 | < 100
COc1cc(Nc2nccc(-c3ccc(OC4CCOCC4)c(C#N)c3)n2)ncc1C(=O)N(C)C [Example 49, 6-([4-[3-cyano-4-(oxan-4-yloxy)phenyl]pyrimidin-2-yl]amino)-4-methoxy-N,N-dimethylpyridine-3-carboxamide] | 100 to 1000 | 100 to 1000
COc1cc(Nc2nccc(-c3ccc(OC4CCOCC4)c(C#N)c3)n2)cnc1C(=O)N(C)C [Example 50, 5-([4-[3-cyano-4-(oxan-4-yloxy)phenyl]pyrimidin-2-yl]amino)-3-methoxy-N,N-dimethylpyridine-2-carboxamide] | < 100 | < 100
COc1cc(Nc2nccc(-c3ccc(OC4CCOCC4)c(C#N)c3)n2)ncc1N1CCN(C)CC1 [Example 53, 5-(2-[[4-methoxy-5-(4-methylpiperazin-1-yl)pyridin-2-yl]amino]pyrimidin-4-yl)-2-(oxan-4-yloxy)benzonitrile hydrochloride] | 100 to 1000 | 100 to 1000

Source: patent US20230019491A1, “PYRIMIDINE TBK/IKKe INHIBITOR COMPOUNDS AND USES THEREOF” (Merck Patent GmbH, priority 2017, published 2023)
